± gives the expanded uncertainty stated by the source.
Settings: Liquid; for mass density: Vibrating tube method

FC(F)=C(F)C(F)(F)F [hexafluoropropene]
Settings	mass density [kg/m3]	vapor or sublimation pressure [kPa]
353.13 K, 6254.1 kPa	1084.82 ± 1.1	–
353.13 K, 6293.2 kPa	1085.83 ± 1.1	–
353.13 K, 6333.5 kPa	1086.9 ± 1.1	–
353.13 K, 6371.8 kPa	1087.85 ± 1.1	–
353.13 K, 6409 kPa	1088.79 ± 1.1	–
353.13 K, 6445.8 kPa	1089.69 ± 1.1	–
353.13 K, 6484.6 kPa	1090.62 ± 1.1	–
353.13 K, 6524.7 kPa	1091.6 ± 1.1	–
353.13 K, 6563.9 kPa	1092.58 ± 1.1	–
353.13 K, 6604.4 kPa	1093.48 ± 1.1	–
353.13 K, 6642.7 kPa	1094.43 ± 1.1	–
353.13 K, 6683.7 kPa	1095.45 ± 1.1	–
353.13 K, 6726.1 kPa	1096.44 ± 1.1	–
353.13 K, 6764 kPa	1097.33 ± 1.1	–
353.13 K, 6802.8 kPa	1098.22 ± 1.1	–
353.13 K, 6841.6 kPa	1099.15 ± 1.1	–
353.13 K, 6882 kPa	1100.04 ± 1.1	–
353.13 K, 6922.2 kPa	1101.01 ± 1.1	–
353.13 K, 6960.8 kPa	1101.88 ± 1.1	–
353.13 K, 7001.3 kPa	1102.71 ± 1.1	–
353.13 K, 7038.1 kPa	1103.6 ± 1.1	–
353.13 K, 7076.1 kPa	1104.43 ± 1.1	–
353.13 K, 7114.4 kPa	1105.3 ± 1.1	–
353.13 K, 7154.8 kPa	1106.21 ± 1.1	–
353.13 K, 7191.9 kPa	1106.87 ± 1.1	–
353.13 K, 7231.5 kPa	1107.79 ± 1.1	–
353.13 K, 7270.9 kPa	1108.59 ± 1.1	–
353.13 K, 7309.7 kPa	1109.52 ± 1.2	–
353.13 K, 7347.2 kPa	1110.31 ± 1.1	–
353.13 K, 7384.6 kPa	1111.14 ± 1.1	–
353.13 K, 7426.6 kPa	1111.94 ± 1.1	–
353.13 K, 7521.7 kPa	1113.95 ± 1.1	–
353.13 K, 7570.3 kPa	1114.91 ± 1.1	–
353.13 K, 7620.7 kPa	1116.02 ± 1.1	–
353.13 K, 7669.4 kPa	1116.98 ± 1.1	–
353.13 K, 7719.8 kPa	1117.99 ± 1.2	–
353.13 K, 7771.4 kPa	1119.1 ± 1.2	–
353.13 K, 7821.6 kPa	1120.08 ± 1.2	–
353.13 K, 7875 kPa	1121.14 ± 1.2	–
353.13 K, 7925.8 kPa	1122.03 ± 1.2	–
353.13 K, 7977.1 kPa	1123.21 ± 1.2	–
353.13 K, 8027.6 kPa	1124.05 ± 1.1	–
353.13 K, 8077.8 kPa	1124.94 ± 1.2	–
353.13 K, 8128 kPa	1125.99 ± 1.2	–
353.13 K, 8179.4 kPa	1126.95 ± 1.2	–
353.13 K, 8229.7 kPa	1127.86 ± 1.2	–
353.13 K, 8281.6 kPa	1128.88 ± 1.2	–
353.13 K, 8333.3 kPa	1129.8 ± 1.2	–
353.13 K, 8384.4 kPa	1130.91 ± 1.2	–
353.13 K, 8434.2 kPa	1131.83 ± 1.2	–
353.13 K, 8483.8 kPa	1132.74 ± 1.2	–
353.13 K, 8533 kPa	1133.6 ± 1.2	–
353.13 K, 8585.1 kPa	1134.64 ± 1.2	–
353.13 K, 8636.6 kPa	1135.48 ± 1.2	–
353.13 K, 8688.1 kPa	1136.4 ± 1.2	–
353.13 K, 8739.4 kPa	1137.27 ± 1.2	–
353.13 K, 8787.9 kPa	1138.25 ± 1.2	–
353.13 K, 8838.8 kPa	1138.97 ± 1.2	–
353.13 K, 8890.6 kPa	1140.08 ± 1.2	–
353.13 K, 8940.9 kPa	1140.78 ± 1.2	–
353.13 K, 8990.5 kPa	1141.72 ± 1.2	–
353.13 K, 9042.5 kPa	1142.55 ± 1.2	–
353.13 K, 9093.8 kPa	1143.46 ± 1.2	–
353.13 K, 9145.5 kPa	1144.29 ± 1.2	–
353.13 K, 9199.3 kPa	1145.07 ± 1.2	–
353.13 K, 9251.5 kPa	1145.95 ± 1.2	–
353.13 K, 9300.6 kPa	1146.86 ± 1.2	–
353.13 K, 9353.4 kPa	1147.68 ± 1.2	–
353.13 K, 9405.2 kPa	1148.61 ± 1.2	–
353.13 K, 9453.7 kPa	1149.26 ± 1.2	–
353.13 K, 9503.3 kPa	1150.03 ± 1.2	–
353.13 K, 9555.6 kPa	1150.83 ± 1.2	–
353.13 K, 9607.5 kPa	1151.69 ± 1.2	–
353.13 K, 9658.7 kPa	1152.54 ± 1.2	–
353.13 K, 9709.8 kPa	1153.31 ± 1.2	–
353.13 K, 9762.3 kPa	1154.19 ± 1.2	–
353.13 K, 9811.9 kPa	1154.85 ± 1.2	–
353.13 K, 9863.5 kPa	1155.62 ± 1.2	–
353.13 K, 9915.1 kPa	1156.42 ± 1.2	–
353.13 K, 9969.2 kPa	1157.38 ± 1.2	–
353.23 K, Closed cell (Static) method	–	2782.3 ± 4.9
355.18 K, 2917.9 kPa	845.6 ± 1.7	–
355.18 K, 2920.4 kPa	846.43 ± 1.7	–
355.18 K, 2923.2 kPa	847.74 ± 1.6	–
355.18 K, 2925.7 kPa	848.75 ± 1.6	–
355.18 K, 2927.7 kPa	849.49 ± 1.6	–
355.18 K, 2929.8 kPa	850.21 ± 1.6	–
355.18 K, 2931.8 kPa	850.86 ± 1.6	–
355.18 K, 2933.8 kPa	851.6 ± 1.6	–
355.18 K, 2936.9 kPa	852.8 ± 1.6	–
355.18 K, 2939.2 kPa	853.64 ± 1.6	–
355.18 K, 2941.8 kPa	854.46 ± 1.6	–
355.18 K, 2944.4 kPa	855.06 ± 1.6	–
355.18 K, 2946.6 kPa	855.85 ± 1.6	–
355.18 K, 2948.8 kPa	856.52 ± 1.6	–
355.18 K, 2952.8 kPa	857.85 ± 1.6	–
355.18 K, 2960 kPa	859.85 ± 1.5	–
355.18 K, 2967.7 kPa	861.92 ± 1.5	–
355.18 K, 2975.4 kPa	863.9 ± 1.5	–
355.18 K, 2989.1 kPa	868.46 ± 1.5	–
355.18 K, 2995.9 kPa	870.43 ± 1.5	–
355.18 K, 3004.5 kPa	872.46 ± 1.6	–
355.18 K, 3019.2 kPa	876.04 ± 1.7	–
355.18 K, 3027.3 kPa	878.11 ± 1.7	–
355.18 K, 3033.9 kPa	879.53 ± 1.7	–
355.18 K, 3039.9 kPa	880.6 ± 1.7	–
355.18 K, 3094.7 kPa	890.53 ± 1.7	–
355.18 K, 3105.5 kPa	892.47 ± 1.4	–
355.18 K, 3126.6 kPa	896.05 ± 1.4	–
355.18 K, 3136.9 kPa	897.86 ± 1.4	–
355.18 K, 3146.9 kPa	899.37 ± 1.4	–
355.18 K, 3157.8 kPa	901.09 ± 1.4	–
355.18 K, 3167.8 kPa	902.86 ± 1.4	–
355.18 K, 3178.7 kPa	904.31 ± 1.3	–
355.18 K, 3189.5 kPa	906.01 ± 1.3	–
355.18 K, 3200.1 kPa	907.48 ± 1.3	–
355.18 K, 3210.7 kPa	909 ± 1.3	–
355.18 K, 3221.2 kPa	910.46 ± 1.3	–
355.18 K, 3231.6 kPa	911.83 ± 1.3	–
355.18 K, 3252.1 kPa	914.62 ± 1.3	–
355.18 K, 3263.1 kPa	916.04 ± 1.2	–
355.18 K, 3273.1 kPa	917.41 ± 1.3	–
355.18 K, 3283.4 kPa	918.63 ± 1.2	–
355.18 K, 3294.3 kPa	920.14 ± 1.2	–
355.18 K, 3304.3 kPa	921.35 ± 1.2	–
355.18 K, 3325.4 kPa	923.75 ± 1.2	–
355.18 K, 3347.5 kPa	926.36 ± 1.2	–
355.18 K, 3368.1 kPa	928.74 ± 1.2	–
355.18 K, 3388.8 kPa	930.98 ± 1.2	–
355.18 K, 3410.2 kPa	933.28 ± 1.2	–
355.18 K, 3453.4 kPa	937.53 ± 1.2	–
355.18 K, 3496.3 kPa	941.66 ± 1.2	–
355.18 K, 3516.9 kPa	943.53 ± 1.2	–

Reference: the NIST ThermoML archive (doi:10.1021/je900596d)
